{"source": "patent US20180256556A1", "about": "“METHODS FOR TREATING AN IMPAIRMENT IN GAIT AND/OR BALANCE IN PATIENTS WITH MULTIPLE SCLEROSIS USING AN AMINOPYRIDINE” (Acorda Therapeutics, Inc., priority 2012, published 2018)", "origin": "cited, not measured here", "key": {"[1]": {"test_system": "patients with multiple sclerosis", "details": "p<0.05"}, "potassium channels": {"test_system": "potassium channels", "details": "high concentration (millimolar)"}}}
{"smiles": "Nc1ccncc1", "note": "[4-AP, 4-aminopyridine]", "values": [{"measurement": "Leg strength (LEMMT) relative to placebo", "setting": "[1]", "value": "statistically significantly improved"}, {"measurement": "Potassium channel blocking activity", "setting": "potassium channels", "value": "broad-spectrum blocker of potassium channels"}]}
